The values that follow come from ChEMBL document CHEMBL1145733, “N-isonicotinoyl-(L)-4-aminophenylalanine derivatives as tight binding VLA-4 antagonists” (Bioorg Med Chem Lett, 2003).

Data set [1] concerns the target T1, Integrin alpha-4/beta-1 (Homo sapiens, UniProt P05556+P13612). Description: Dissociation from Very late antigen 4 (VLA-4). The data set is classed as protein-complex assay.
For data set [2], the target named is T1, Integrin alpha-4/beta-1. In words: Inhibition of [125I]VCAM-Ig binding to VLA-4 of Jurkat cells in the presence of [Ca2+]. It is filed as cell-based.
Data set [3] deals with T1, Integrin alpha-4/beta-1. Description: Inhibition of [125I]VCAM-Ig binding to VLA-4 of Jurkat cells in the presence of Mn2+. The data set is classed as cell-based.
Data set [4] deals with T1, Integrin alpha-4/beta-1. Description: Inhibition of VLA-4 binding in Jurkat cells in the presence of Mg2+. It is filed as cell-based.
Data set [5] is described as follows: Half life period was determined in rhesus monkey at a dose of 1 mg/kg by iv administration. The data set is classed as ADME, organism-based. Further details: dose 1 mg/kg, route intravenous. To be noted: cercopithecidae, in vivo.
For data set [6], the system named is Rattus norvegicus. In words: Unbound plasma was determined in Sprague-Dawley rats at a dose of 1 mg/kg by iv administration. The data set is classed as ADME, organism-based. Further details: dose 1 mg/kg, route intravenous. The following applies: in vivo.
Data set [7] deals with Canis familiaris. In words: Unbound plasma was determined in Beagle dog at a dose of 1 mg/kg by iv administration. Set-up: dose 1 mg/kg, route intravenous. The data set is classed as ADME, organism-based, Canis lupus familiaris. The following applies: in vivo.
The nature of data set [8]: Oral bioavailability in rhesus monkey at a dose of 2 mg/kg by po administration. The data set is classed as ADME, organism-based, Macaca mulatta. To be noted: in vivo.
Data set [9] can be described thus: Plasma clearance was determined in rhesus monkey at a dose of 1 mg/kg by iv administration. The data set is classed as ADME, organism-based. Set-up: dose 1 mg/kg, route intravenous. To be noted: cercopithecidae, read-out: Clp.
Data set [10] is described as follows: Unbound plasma was determined in rhesus monkey at a dose of 1 mg/kg by iv administration. It is filed as ADME, organism-based. Further details: dose 1 mg/kg, route intravenous. The following applies: cercopithecidae, in vivo.
Data set [11] in a line: Oral bioavailability in Sprague-Dawley rats at a dose of 2 mg/kg by po administration. The data set is classed as ADME, organism-based. To be noted: rat, in vivo.
A short description of data set [12]: Oral bioavailability in Beagle dog at a dose of 2 mg/kg by po administration. The data set is classed as ADME, organism-based, Canis lupus familiaris. The following applies: in vivo.
The nature of data set [13]: Plasma clearance was determined in Beagle dog at a dose of 1 mg/kg by iv administration. It is filed as ADME, organism-based, Canis lupus familiaris. Set-up: dose 1 mg/kg, route intravenous. To be noted: read-out: Clp.
Data set [14] is described as follows: Half life period was determined in Beagle dog at a dose of 1 mg/kg by iv administration. The following applies: in vivo. Further details: dose 1 mg/kg, route intravenous. The data set is classed as ADME, organism-based, Canis lupus familiaris.
Data set [15] in a line: Half life period was determined in Sprague-Dawley rats at a dose of 1 mg/kg by iv administration. Set-up: dose 1 mg/kg, route intravenous. It is filed as ADME, organism-based. To be noted: rat, in vivo.
A short description of data set [16]: Plasma clearance was determined in Sprague-Dawley rats at a dose of 1 mg/kg by iv administration. It is filed as ADME, organism-based. Set-up: dose 1 mg/kg, route intravenous. To be noted: rat, read-out: Clp.

In general, IC50 refers to the point on the concentration scale where inhibition reaches its midpoint. Broadly, the half-life is the time needed for the level to fall by half in the phase considered. A word on the bioavailability: it is dose-corrected exposure relative to a reference, in per cent.

T1 sequence (P05556 whole entry): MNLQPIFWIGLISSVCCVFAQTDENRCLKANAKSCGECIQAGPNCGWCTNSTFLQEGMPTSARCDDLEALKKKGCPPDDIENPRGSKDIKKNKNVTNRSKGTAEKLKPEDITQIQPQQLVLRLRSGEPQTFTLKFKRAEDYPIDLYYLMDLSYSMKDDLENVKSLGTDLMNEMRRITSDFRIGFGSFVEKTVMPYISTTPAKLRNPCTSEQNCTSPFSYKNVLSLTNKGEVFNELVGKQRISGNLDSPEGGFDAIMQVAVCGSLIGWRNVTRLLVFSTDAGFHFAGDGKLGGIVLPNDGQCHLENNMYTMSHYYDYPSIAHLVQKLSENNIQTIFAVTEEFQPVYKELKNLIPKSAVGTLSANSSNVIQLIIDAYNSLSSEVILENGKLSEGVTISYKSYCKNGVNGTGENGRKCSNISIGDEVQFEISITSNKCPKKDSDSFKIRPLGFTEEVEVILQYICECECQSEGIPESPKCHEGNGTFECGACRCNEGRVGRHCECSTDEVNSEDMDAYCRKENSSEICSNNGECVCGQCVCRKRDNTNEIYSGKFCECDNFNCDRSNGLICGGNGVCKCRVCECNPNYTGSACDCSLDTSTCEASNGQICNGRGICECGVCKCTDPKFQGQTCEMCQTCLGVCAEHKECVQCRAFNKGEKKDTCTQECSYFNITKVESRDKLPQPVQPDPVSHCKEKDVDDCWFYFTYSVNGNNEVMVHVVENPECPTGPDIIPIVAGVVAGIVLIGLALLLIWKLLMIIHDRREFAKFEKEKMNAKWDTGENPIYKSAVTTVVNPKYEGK
T1 sequence (P13612 whole entry): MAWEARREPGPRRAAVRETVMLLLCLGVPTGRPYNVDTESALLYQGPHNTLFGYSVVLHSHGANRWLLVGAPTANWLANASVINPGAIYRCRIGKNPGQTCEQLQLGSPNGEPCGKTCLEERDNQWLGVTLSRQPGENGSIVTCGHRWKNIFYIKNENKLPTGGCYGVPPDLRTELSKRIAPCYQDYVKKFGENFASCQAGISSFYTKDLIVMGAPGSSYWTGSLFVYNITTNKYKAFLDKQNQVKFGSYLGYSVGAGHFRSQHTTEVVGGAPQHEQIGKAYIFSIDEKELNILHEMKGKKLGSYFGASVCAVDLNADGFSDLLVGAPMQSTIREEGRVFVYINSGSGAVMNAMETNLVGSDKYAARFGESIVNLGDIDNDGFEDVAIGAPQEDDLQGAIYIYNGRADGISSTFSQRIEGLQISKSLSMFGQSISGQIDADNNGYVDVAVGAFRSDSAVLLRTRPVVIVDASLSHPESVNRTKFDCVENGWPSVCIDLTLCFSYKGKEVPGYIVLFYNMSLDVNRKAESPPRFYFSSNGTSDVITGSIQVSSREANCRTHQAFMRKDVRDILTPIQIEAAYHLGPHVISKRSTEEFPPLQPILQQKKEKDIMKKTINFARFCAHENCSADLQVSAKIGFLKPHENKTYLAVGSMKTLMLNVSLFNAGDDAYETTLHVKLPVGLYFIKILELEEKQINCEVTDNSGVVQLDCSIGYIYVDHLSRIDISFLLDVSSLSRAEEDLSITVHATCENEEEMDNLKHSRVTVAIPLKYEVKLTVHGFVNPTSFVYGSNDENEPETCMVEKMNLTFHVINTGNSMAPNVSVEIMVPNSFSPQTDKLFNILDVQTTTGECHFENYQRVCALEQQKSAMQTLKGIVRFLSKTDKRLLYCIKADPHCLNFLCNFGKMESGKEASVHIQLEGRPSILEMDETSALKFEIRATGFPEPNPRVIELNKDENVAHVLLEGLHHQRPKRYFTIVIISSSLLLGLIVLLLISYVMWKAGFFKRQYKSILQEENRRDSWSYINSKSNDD

In data set [1], `O=C(Nc1ccc(C[C@H](NC(=O)[C@@H]2CCCN2S(=O)(=O)c2cc(Cl)cc(Cl)c2)C(=O)O)cc1)c1c(Cl)cncc1Cl` gave a Bound of 62%. In addition, the results for the IC50 in data set [2], in data set [3] and in data set [4] were 0.07 nM, 0.1 nM and 0.07 nM, respectively.
In data set [1], `C[C@@]1(C(=O)N[C@@H](Cc2ccc(NC(=O)c3cccnc3)cc2)C(=O)O)CCCN1S(=O)(=O)c1cc(Cl)cc(Cl)c1` registered a Bound of 12%. For the same compound, the values for the 50% inhibitory concentration (IC50) in data set [2], in [3] and in data set [4] were 0.25 nM, 0.27 nM and 0.25 nM, respectively.
`C[C@@]1(C(=O)N[C@@H](Cc2ccc(NC(=O)c3c(Cl)cccc3Cl)cc2)C(=O)O)CCCN1S(=O)(=O)c1cc(Cl)cc(Cl)c1`: the Bound in data set [1] came out at 15%. In addition, the IC50 amounted to 0.15 nM in data set [2], 0.21 nM in [3] and 0.15 nM in data set [4].
Regarding `C[n+]1ccc(C(=O)Nc2ccc(C[C@H](NC(=O)[C@]3(C)CCCN3S(=O)(=O)c3cc(Cl)cc(Cl)c3)C(=O)O)cc2)c(Cl)c1`, the Bound in [1] was 0%. The results for the IC50 in data set [2], in [3] and in data set [4] were 0.31 nM, 0.16 nM and 0.31 nM, respectively.
On to `O=C(Nc1ccc(C[C@H](NC(=O)[C@@H]2CCCN2S(=O)(=O)c2ccccc2)C(=O)O)cc1)c1c(Cl)cncc1Cl`, for which the Bound in data set [1] was determined as 19%. In addition, the IC50 came out at 0.13 nM in data set [2], 0.15 nM in data set [3] and 0.13 nM in [4].
Consider `C[C@@]1(C(=O)N[C@@H](Cc2ccc(NC(=O)C3=C(Cl)CC(=O)N=C3Cl)cc2)C(=O)O)CCCN1S(=O)(=O)c1cc(Cl)cc(Cl)c1`, for which the Bound in data set [1] was determined as 61%. Besides, the IC50 in [2] worked out at 0.08 nM; in data set [3] it was 0.1 nM; in data set [4], 0.08 nM.
`C[C@@]1(C(=O)N[C@@H](Cc2ccc(NC(=O)c3cnccc3Cl)cc2)C(=O)O)CCCN1S(=O)(=O)c1cc(Cl)cc(Cl)c1` came in with a Bound in data set [1] of 26%. The IC50 in data set [2] is 0.21 nM; in data set [3] it was 0.14 nM; in data set [4], 0.21 nM.
In data set [1], `CSc1cnccc1C(=O)Nc1ccc(C[C@H](NC(=O)[C@]2(C)CCCN2S(=O)(=O)c2cc(Cl)cc(Cl)c2)C(=O)O)cc1` registered a Bound of 0%. The IC50 in data set [2] stood at 1.56 nM; in data set [3] it was 0.36 nM; in data set [4], 1.56 nM.
`C[C@@]1(C(=O)N[C@@H](Cc2ccc(NC(=O)c3c(Cl)ccnc3Cl)cc2)C(=O)O)CCCN1S(=O)(=O)c1cc(Cl)cc(Cl)c1`: the figures for the half-life in [5], in data set [14] and in data set [15] were 2.3 h, 0.73 h and 1.7 h, respectively. Further, the Unbound plasma was 0.2% in [6], 2.2% in data set [7] and 0.15% in data set [10]. For the same compound, the figures for the bioavailability in [8], in data set [11] and in data set [12] were 4%, 1.6% and 0.4%, respectively. Besides, the values for the clearance in data set [9], in data set [13] and in [16] were 7.5 mL/min/kg, 32 mL/min/kg and 1.9 mL/min/kg, respectively. The same compound came in with a Bound in data set [1] of 57%. The IC50 in [2], in data set [3] and in data set [4] was 0.11 nM each time.
In the case of `COc1cc(CN2CCCC2)cc(OC)c1-c1ccc(C[C@H](NC(=O)[C@]2(C)CCCN2S(=O)(=O)c2cc(Cl)cc(Cl)c2)C(=O)O)cc1`, the Bound in data set [1] stood at 43%. Further, the results for the IC50 in data set [2], in data set [3] and in data set [4] were 0.09 nM, 0.1 nM and 0.09 nM, respectively.
Consider `C[n+]1cc(Cl)c(C(=O)Nc2ccc(C[C@H](NC(=O)[C@]3(C)CCCN3S(=O)(=O)c3cc(Cl)cc(Cl)c3)C(=O)O)cc2)c(Cl)c1`, for which the Bound in data set [1] was found to be 61%. For the same compound, the IC50 in [2] amounted to 0.1 nM; in [3], 0.19 nM; in data set [4], 0.1 nM.
For the compound `O=C(Nc1ccc(C[C@H](NC(=O)[C@@H]2CCCN2S(=O)(=O)c2cccc(Cl)c2)C(=O)O)cc1)c1c(Cl)cncc1Cl`, the Bound in [1] stood at 37%. Besides, the IC50 in data set [2] is 0.1 nM; in [3], 0.09 nM; in data set [4] it was 0.1 nM.
`COc1ccnc(Cl)c1C(=O)Nc1ccc(C[C@H](NC(=O)[C@]2(C)CCCN2S(=O)(=O)c2cc(Cl)cc(Cl)c2)C(=O)O)cc1`: in data set [1], the Bound worked out at 40%. Further, the IC50 in data set [2] is 0.08 nM; in data set [3], 0.13 nM; in data set [4], 0.08 nM.
For the compound `COc1cccc(OC)c1-c1ccc(C[C@H](NC(=O)[C@]2(C)CCCN2S(=O)(=O)c2cc(Cl)cc(Cl)c2)C(=O)O)cc1`, the Bound in data set [1] was determined as 1%. Besides, the IC50 in [2] and in data set [4] was 0.09 nM in each case.
